Laboratory results published in patent publication US20180228730A1, “USE OF WATER-SOLUBLE POLYMERS BASED ON N-VINYLPYRROLIDONE AND ACRYLIC ACID AS PHARMACEUTICAL ADJUVANTS” (BASF SE, priority 2015, published 2018).
Read-outs that look alike come from different tables or passages of the source.

Legend:
[1] = demineralized water, 100 mg haloperidol per 250 ml, hard gelatine capsules
Protocol: The release of the active ingredient from the spray-dried polymeric salt was carried out in demineralized water. The initial weight was calculated on 100 mg of haloperidol per 250 ml of release medium. The polymeric salt or the crystalline substance correspondingly weighed out were filled into hard gelatine capsules.

[2] = Release of loperamide from extrudates in demineralized water (release device, UV/VIS); format: physicochemical; settings: 250 ml demineralized water, 37° C.; spectroscopic detection
Protocol: The active ingredient release from samples 14, 15, 16 and 17 were tested in a release device with automatic spectroscopic measurement (00501FEXXX-D). The extrudates having 5% content of active ingredient were added directly to the release medium at the beginning of the experiment. […] The mixtures were filled into hard gelatine capsules and released therefrom.
Procedure for release (2 hours):
Conditions 0-2 hours: Medium: • 250 ml of demineralized water; • paddle stirrer 50 rpm; • temperature 37° C. • content determination UV/VIS with 1 cm path length cuvette • active ingredient amount 250 mg
The results of the releases are compiled in the following tables and diagrams. The release is complete in all cases.

Row | SMILES | Release of haloperidol ([1]; 0 min) [%] | Release of haloperidol ([1]; 2 min) [%] | Release of haloperidol ([1]; 4 min) [%] | Release of haloperidol ([1]; 6 min) [%] | Release of haloperidol ([1]; 8 min) [%] | Release of haloperidol ([1]; 10 min) [%] | Release of haloperidol ([1]; 30 min) [%] | Release of haloperidol ([1]; 60 min) [%] | Release of haloperidol ([1]; 120 min) [%] | Dissolution in the release medium [2]
1 | O=C(CCCN1CCC(O)(c2ccc(Cl)cc2)CC1)c1ccc(F)cc1 [Crystalline haloperidol, haloperidol] | 0.0 | 0.1 | 0.2 | 0.3 | 0.4 | 0.6 | 1.5 | 1.8 | 2.3 | 
2 | CN(C)C(=O)C(CCN1CCC(O)(c2ccc(Cl)cc2)CC1)(c1ccccc1)c1ccccc1 [crystalline loperamide (base), loperamide] |  |  |  |  |  |  |  |  |  | no dissolution at all
